Data reported in ChEMBL document CHEMBL1201862, “PubChem BioAssay data set” (2004).
Values joined by “and” are separate entries in the source; they are usually repeats but may differ in a detail not shown here. Equal values may be shown once.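 A five-concentration, 48-hour dose response in 96-well plates underlies each endpoint, interpolated linearly between surrounding concentrations. Here, GI50 denotes the concentration required for 50% inhibition of growth.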 Active and inactive are the calls of the source. No stated cut-off is given here; in the data, active = GI50 up to about 1.1 µM and inactive = higher.

How the values were obtained:
Assay in all cases: growth of human tumour cells (NCI), 48 h
[1] = test system: SW-620
[2] = test system: A498
[3] = test system: PC-3
[4] = test system: LXFL 529
[5] = test system: 786-0
[6] = test system: RXF 631
[7] = test system: Malme-3M
[8] = test system: HCT-15
[9] = test system: SR
[10] = test system: KM-20L2
[11] = test system: NCI/ADR-RES
[12] = test system: MCF7
[13] = test system: SK-MEL-28
[14] = test system: DLD-1
[15] = test system: OVCAR-5
[16] = test system: DMS-273
[17] = test system: NCI-H226
[18] = test system: HL-60
[19] = test system: NCI-H460
[20] = test system: COLO 205
[21] = test system: CCRF-CEM
[22] = test system: Hs-578T
[23] = test system: HOP-18
[24] = test system: CAKI-1
[25] = test system: DMS-114
[26] = test system: MDA-N
[27] = test system: MOLT-4
[28] = test system: XF498
[29] = test system: UO-31
[30] = test system: HCC 2998
[31] = test system: M19-MEL
[32] = test system: SF-539
[33] = test system: LOX IMVI
[34] = test system: SNB-78
[35] = test system: HCT-116
[36] = test system: IGROV-1
[37] = test system: SNB-19
[38] = test system: TK-10
[39] = test system: M14
[40] = test system: RPMI-8226
[41] = test system: SF-268
[42] = test system: SK-MEL-2
[43] = test system: UACC-62
[44] = test system: KM12
[45] = test system: OVCAR-8
[46] = test system: ACHN
[47] = test system: U-251
[48] = test system: SK-OV-3
[49] = test system: K562
[50] = test system: SK-MEL-5
[51] = test system: SF-295
[52] = test system: NCI-H23
[53] = test system: RXF 393
[54] = test system: OVCAR-3
[55] = test system: EKVX
[56] = test system: NCI-H522
[57] = test system: SN12C
[58] = test system: HOP-92
[59] = test system: A549
[60] = test system: HT-29
[61] = test system: SNB-75

Which GI50 [1] does the source give for `COc1cccc2c1C(=O)c1c(O)c3c(c(O)c1C2=O)C[C@@](O)(C(C)=O)C[C@@H]3OC1CC(N)C(O)C(C)O1` (some centres undefined) here?
The GI50 was < 16.7 nM (active) and 22.9 nM (active).

And the GI50 [2]?
The GI50 was 146 nM (active) and 197 nM (active).

What about the GI50 [3] of the same compound?
Its GI50 is 48 nM (active) and 78.9 nM (active).

And the GI50 [4]?
Its GI50 is 0.0743 µM (active).

What about the GI50 [5] of the same compound?
Its GI50 is < 17.8 nM (active) and 32.6 nM (active).

And the GI50 [6]?
The GI50 was 0.115 µM (active).

What about the GI50 [7] of the same compound?
The GI50 was 30.3 nM (active) and 54.3 nM (active).

And the GI50 [8]?
Its GI50 is 0.721 µM and 0.689 µM.

And the GI50 [9]?
Its GI50 is 8.39 nM (active) and < 13.5 nM (active).

And the GI50 [10]?
Its GI50 is 0.194 µM (active).

What about the GI50 [11] of the same compound?
The GI50 was 2.42 µM (inactive) and 4.61 µM (inactive).

What about the GI50 [12] of the same compound?
Its GI50 is 0.00889 µM (active).

And the GI50 [13]?
The GI50 was 167 nM (active) and 303 nM (active).

And the GI50 [14]?
Its GI50 is 0.309 µM (active).

And the GI50 [15]?
The GI50 was 201 nM (active) and 238 nM (active).

What about the GI50 [16] of the same compound?
Its GI50 is 0.0889 µM (active).

And the GI50 [17]?
The GI50 was 24 nM (active) and 34.6 nM (active).

And the GI50 [18]?
The GI50 was < 11.4 nM (active) and 12.3 nM (active).

What about the GI50 [19] of the same compound?
Its GI50 is < 10 nM (active) and 5.94 nM (active).

What about the GI50 [20] of the same compound?
The GI50 was 156 nM (active) and 142 nM (active).

What about the GI50 [21] of the same compound?
The GI50 was < 10 nM (active) and 12.8 nM (active).

And the GI50 [22]?
Its GI50 is 168 nM (active) and 192 nM (active).

What about the GI50 [23] of the same compound?
Its GI50 is 0.118 µM (active).

What about the GI50 [24] of the same compound?
The GI50 was 81.8 nM (active) and 99.1 nM (active).

And the GI50 [25]?
Its GI50 is 0.0371 µM (active).

What about the GI50 [26] of the same compound?
Its GI50 is 168 nM (active) and 98.9 nM (active).

What about the GI50 [27] of the same compound?
The GI50 was < 10 nM (active) and 6.34 nM (active).

And the GI50 [28]?
Its GI50 is 0.069 µM (active).

What about the GI50 [29] of the same compound?
Its GI50 is 412 nM (active) and 413 nM (active).

What about the GI50 [30] of the same compound?
Its GI50 is 154 nM (active) and 167 nM (active).

What about the GI50 [31] of the same compound?
The GI50 was 0.08 µM (active).

And the GI50 [32]?
Its GI50 is 39.1 nM (active) and 48.3 nM (active).

And the GI50 [33]?
Its GI50 is < 13.1 nM (active) and 24.9 nM (active).

And the GI50 [34]?
Its GI50 is 0.292 µM (active).

Which results are given for `CCOC(=O)C/C(N)=C(\C#N)C(=O)OCC`?
GI50 [1]: > 100 µM (inactive); GI50 [2]: > 100 µM (inactive); GI50 [35]: > 100 µM (inactive); GI50 [36]: > 100 µM (inactive); GI50 [37]: > 100 µM (inactive); GI50 [38]: > 100 µM (inactive); GI50 [4]: > 100 µM (inactive); GI50 [39]: > 100 µM (inactive); GI50 [40]: > 100 µM (inactive); GI50 [5]: > 100 µM (inactive); GI50 [41]: > 100 µM (inactive); GI50 [42]: > 100 µM (inactive); GI50 [43]: > 100 µM (inactive); GI50 [6]: > 100 µM (inactive); GI50 [7]: > 100 µM (inactive); GI50 [8]: > 100 µM; GI50 [9]: > 100 µM (inactive); GI50 [10]: > 100 µM (inactive); GI50 [44]: > 100 µM (inactive); GI50 [45]: > 100 µM (inactive); GI50 [46]: > 100 µM (inactive); GI50 [47]: > 100 µM (inactive); GI50 [13]: > 100 µM (inactive); GI50 [48]: > 100 µM (inactive); GI50 [49]: > 100 µM (inactive); GI50 [14]: > 100 µM (inactive); GI50 [15]: > 100 µM (inactive); GI50 [16]: > 100 µM (inactive); GI50 [50]: > 100 µM (inactive); GI50 [17]: > 100 µM (inactive); GI50 [18]: > 100 µM (inactive); GI50 [19]: > 100 µM (inactive); GI50 [20]: > 100 µM (inactive); GI50 [21]: > 100 µM (inactive); GI50 [23]: > 100 µM (inactive); GI50 [24]: > 100 µM (inactive); GI50 [51]: > 100 µM (inactive); GI50 [52]: > 100 µM (inactive); GI50 [53]: > 100 µM (inactive); GI50 [54]: > 100 µM (inactive); GI50 [25]: > 100 µM (inactive); GI50 [55]: > 100 µM (inactive); GI50 [56]: > 100 µM (inactive); GI50 [27]: > 100 µM (inactive); GI50 [28]: > 100 µM (inactive); GI50 [57]: > 100 µM (inactive); GI50 [29]: > 100 µM (inactive); GI50 [58]: > 100 µM (inactive); GI50 [59]: > 100 µM (inactive); GI50 [31]: > 100 µM (inactive); GI50 [60]: > 100 µM (inactive); GI50 [32]: > 100 µM (inactive); GI50 [33]: > 100 µM (inactive); GI50 [61]: > 100 µM (inactive); GI50 [34]: > 100 µM (inactive)
